Read-outs that look alike come from different tables or passages of the source.
Key:
[1] = tested on: Escherichia coli (E. coli) strain procured from a patient; test: MIC macrodilution (NCCLS) serial dilution; assay type: cell-based; set-up: key to growth in MIC tube: “+” denotes visually detectable growth in MIC tube.; “NG” denotes “no growth” in MIC tube; key to MIC: “NE” denotes not effective; details: for MIC: antibiotics
Description: (§1) Cell suspension concentration was calculated by measuring the optical density (A610) between 0.6 and 0.9.
(§2) To study efficacy, the challenge was done by determining minimum inhibitory concentration or MIC by employing serial dilutions. The minimum inhibitory concentration or MIC is defined as the minimum concentration of antibiotic that will inhibit the growth of the isolated microorganism. In its normal mode of operation, a bacterial inoculum is inoculated into tubes containing culture media and varying concentrations of the antibiotic to be tested. The tubes are incubated to allow bacterial growth. The MIC is read as the lowest concentration of biocide that inhibited bacterial growth. The interpretation of this MIC depends on the organism/biocide pair being tested, and is made following standard guidelines. MIC testing of the present compositions was conducted via a macrodilution procedure using NCCLS (National Committee for Clinical Laboratory Standards) methods for antibiotic susceptibility testing. The biological experiments were conducted by serial dilution with Muller Hinton media of ten tubes where the bacterial concentration was 10 million cells/ml in each. In addition to the “as is” samples (i.e. 100%), ten 1:1 serial dilutions of each sample were tested to determine the MIC for each sample-inoculum combination. The equivalent percentages of the dilutions are: 100, 50, 25, 12.5, 6.25, 3.125, 1.562, 0.781, 0.391, and 0.195%. These tubes were then incubated at 37±2° C. for approximately 24 hours without agitation. The tubes were then observed for presence and level of visible growth.

[2] = tested on: Staphylococcus aureus (S. aureus) ATCC 43300; test: MIC macrodilution (NCCLS) serial dilution; assay type: cell-based; set-up: key to growth in MIC tube: “+” denotes visually detectable growth in MIC tube.; “NG” denotes “no growth” in MIC tube; details: for MIC: antibiotics
Description: as §1, §2

[3] = tested on: Vero (Simian Kidney Immortalized Cell Line); test: Cytotoxic effect, Trypan Blue viable cell count after 72 hrs; assay type: cell-based
Description: (§3) Cells are plated in a 96 well flat bottom tissue culture plates at 10,000 cells/well. Dilutions and controls are added to wells as follows:
(§4) Vero Cells were grown and tested in complete Dulbeco's Modified Eagles Medium (DMEM) supplemented with 15% Fetal Bovine Serum (FBS), Gentamicine 40 μg/ml, Hepes buffer at pH=7.2, L-Glutamine 2 mM and Sodium pyruvate. MCF-7 were grown and tested in complete RPMI-1640 medium supplemented with 10% FBS Gentamicine 40 μg/ml, Hepes buffer at pH=7.2, L-Glutamine 2 mM and Sodium pyruvate. Plates were incubated in CO2 in a humidified incubator at 37° C. for 72 hrs, and then each well was harvested and counted by Trypan Blue dye exclusion method. Numbers of viable cells were counted on a hemacytometer and adjusted for concentration of cells/ml. For comparative purposes, experiments with Cisplatin ([…], MW=300), a well-known chemotherapeutic drug, at 8 and 4 μM were also conducted.

MCF-7 = details: for % Inhibition: 72 hrs
Description: as §3, §4
(§5) The methodology was the same as the one employed for Example 1 above.

[4] = tested on: BHL-89 (Human B-type EBNA negative lymphoma); details: Example 2, FIG. 3, down to dilution 1:256 (18 and 3.64 μM silver and iron)
Description: as §3, §4, §5

Jurkat = details: Example 2, FIG. 3, down to dilution 1:256 (18 and 3.64 μM silver and iron)
Description: as §3, §4, §5

T-47D = details: Example 2, FIG. 3, down to dilution 1:256 (18 and 3.64 μM silver and iron)
Description: as §3, §4, §5

[5] = 100% of initial, approx. 24 hours, 37°C
[6] = S. aureus (ATCC 43300), 100% of initial, approx. 24 hours, 37°C

Molecule | growth in MIC tube ([1]; 0.195% of initial) | growth in MIC tube ([1]; 0.391% of initial) | growth in MIC tube ([1]; 0.781% of initial) | growth in MIC tube ([1]; 1.562% of initial) | growth in MIC tube ([1]; 3.125% of initial) | growth in MIC tube ([1]; 6.25% of initial) | growth in MIC tube ([1]; 12.5% of initial) | growth in MIC tube ([1]; 25% of initial) | growth in MIC tube ([1]; 50% of initial) | growth in MIC tube [1, 5] | growth in MIC tube [2, 6] | growth in MIC tube ([2]; S. aureus, 0.195% of initial) | growth in MIC tube ([2]; S. aureus, 0.391% of initial) | growth in MIC tube ([2]; S. aureus, 0.781% of initial) | growth in MIC tube ([2]; S. aureus, 1.562% of initial) | growth in MIC tube ([2]; S. aureus, 3.125% of initial) | growth in MIC tube ([2]; S. aureus, 6.25% of initial) | growth in MIC tube ([2]; S. aureus, 12.5% of initial) | growth in MIC tube ([2]; S. aureus, 25% of initial) | growth in MIC tube ([2]; S. aureus, 50% of initial) | also measured
OO [50 mM H2O2, hydrogen peroxide] | + | + | + | + | + | + | + | NG | NG | NG | + | + | + | + | + | + | + | + | + | + | 
N.N.[Cl][Pt][Cl] [Cisplatin] |  |  |  |  |  |  |  |  |  |  |  |  |  |  |  |  |  |  |  |  | % Inhibition ([3]; 4 μM): no effect; % Inhibition ([3]; 4 μM, listed as CIS PLA): −7%; % Inhibition ([3]; 8 μM): 61%; % Inhibition (MCF-7; 4 μM): 72%; % Inhibition (MCF-7; 8 μM): 90%
Cc1onc(-c2ccccc2)c1C(=O)N[C@@H]1C(=O)N2[C@@H]1SC(C)(C)[C@@H]2C(=O)O [OXA, Oxacillin] | + | + | + | + | + | + | + | + | + | + | NG | + | + | NG | NG | NG | NG | NG | NG | NG | MIC [1]: NE; MIC ([2]; Staphylococcus aureus, ATCC43300, S. aureus, read-out: MIC): 1.56 µg/mL
O=P1(N(CCCl)CCCl)NCCCO1 (stereo not shown) [cyclophosphamide] |  |  |  |  |  |  |  |  |  |  |  |  |  |  |  |  |  |  |  |  | cytotoxic effect (in words) [4]: does not have any effects; cytotoxic effect (in words) (Jurkat): minimum effects; cytotoxic effect (in words) (MCF-7; Example 2, FIG. 3, down to dilution 1:256 (18 and 3.64 μM silver and iron)): minimum effects; cytotoxic effect (in words) (T-47D): does not have any effects
Gentamicin | + | + | + | + | + | + | + | + | + | + | NG | NG | NG | NG | NG | NG | NG | NG | NG | NG | MIC [1]: NE; MIC ([2]; S. aureus): 0.391 ppm
